Measured values from publication PMC11157491, “Novel Alaninamide Derivatives with Drug-like Potential for Development as Antiseizure and Antinociceptive Therapies—In Vitro and In Vivo Characterization” (ACS Chemical Neuroscience, 2024).

Experiments:
[1] = molecular target: T1, TRPV1 (VR1) (h) (Homo sapiens, UniProt Q8NER1); assay: TRPV1 antagonist effect functional assay; format: cell-based; details: 10 μM, human recombinant CHO cells; read-out: % inhibition of control agonist response
T1 construct: Eurofins (contract assay)
Protocol: For many years, the TRPV1 channel, permeable to calcium and sodium ions, has been recognized as a promising molecular target for novel analgesics.[19] […] Therefore, bearing in mind the involvement of TRPV1 in pain sensation and potentially in seizure induction, in the next step of the in vitro studies, the TRPV1 antagonist activity was determined for all compounds obtained (Table 6).
Binding/functional studies were carried out commercially in Eurofins Laboratories (Poitiers, France) and Eurofins Panlabs Discovery Services Taiwan, Ltd. (New Taipei City, Taiwan) using testing procedures that were reported previously (for details, see Table S2).
Table S2. Radioligand binding and functional assays. […]
TRPV1 (VR1) (h) (antagonist effect) […]
Assays were performed commercially in Eurofins Laboratories ( Poitiers, France) or Eurofins Panlabs Discovery Services
Taiwan, Ltd. (New Taipei City, Taiwan).

[2] = tested on: mice; assay: 6 Hz (32 mA) psychomotor seizure model; format: in vivo; details: Mus musculus, ip; for responders at 100 mg/kg: 100 mg/kg i.p., 0.5 h
Text: (§1) Identification and profiling of new ASM candidate compounds are still largely based on predictive animal models of seizures/epilepsy, while a range of in silico and in vitro approaches (i.e., molecular modeling or high throughput screening, etc.) are increasingly used in the early stages of ASM discovery.[31] The Epilepsy Therapy Screening Program (ETSP) of the National Institute of Neurological Disorders and Stroke (NIH, Bethesda, MD) has enabled the discovery of several approved ASMs by focusing on the in vivo testing of compounds synthesized by both academic laboratories and industry.[32] The ETSP provides a broad panel of seizure tests (ca. 30 rodent models), but a subset of them is used for the initial screening of new compounds with potential antiseizure activity. The routinely used seizure models include: (i) the MES test, which is an experimental model of tonic–clonic seizures, (ii) the 6 Hz model (32 mA) of focal seizures, and (iii) the scPTZ model of generalized absence or myoclonic seizures.[33],[34] Consequently, in the current studies, all final compounds 21–36 and 45–48 were initially studied in the MES and the 6 Hz (32 mA) seizure models after intraperitoneal (i.p.) administration at a screening dose of 100 mg/kg in mice at a time point of 0.5 h (the screening group consisted of four mice, and the results obtained are summarized in Table S1).
(§2) These parameters were then used to calculate the protective indexes (PIs, PI = TD50/ED50), which describe the therapeutics window of potential drug candidates. The ED50, TD50, and PI values for the tested compounds together with data of their chemical prototypes KA-11 and KJ-5 and reference ASMs are summarized in Table 2.
(§3) The adult male Albino Swiss mice weighed between 22 and 26 g were used in the in vivo studies. They were housed under standardized housing conditions in colony cages and had free access to food as well as tap water. The animals were left to adapt under laboratory conditions for 7 days. All procedures involving animals and their care were performed in accordance with the current European Community and Polish legislation on animal experimentation.
(§4) In the initial screening studies, four mice per group were randomly assigned to each experimental group (each mouse was used only once). To evaluate the ED50 or TD50 values, four groups consisting of eight animals were injected with various doses of tested compounds. The protective indexes (PIs) for the compounds investigated and reference ASMs were calculated by dividing the TD50 value, as determined in the chimney test, by the respective ED50 value, as determined in the MES, scPTZ, or 6 Hz (32 or 44 mA) tests (PI = TD50/ED50). The PIs are a measure of the potential therapeutic window of the tested agent.
(§5) All substances were suspended in Tween 80 (1% aqueous solution) and administered i.p. as a single injection at a dose of 10 mL/kg. On each day of experimentation, fresh solutions were prepared. The detailed in vivo procedures are described elsewhere: the maximal electroshock seizure test (MES),[60] the subcutaneous pentylenetetrazole seizure test (scPTZ),[61] the 6 Hz psychomotor seizure model (32 and 44 mA),[62] and the chimney test.[63] The reference ASMs were purchased from commercial suppliers: VPA (Sigma-Aldrich, St. Louis, MO), LCS, and LEV (UCB Pharma, Braine l’Alleud, Belgium).

[3] = tested on: mice; assay: Subcutaneous pentylenetetrazole (scPTZ) seizure test; format: in vivo; details: 100 mg/kg i.p.
Text: as §2, §4, §5

[4] = tested on: mice; assay: Maximal electroshock (MES) seizure test; format: in vivo; details: Mus musculus, ip
Text: as §1, §2, §3, §4, §5

T1 sequence (Q8NER1 whole entry): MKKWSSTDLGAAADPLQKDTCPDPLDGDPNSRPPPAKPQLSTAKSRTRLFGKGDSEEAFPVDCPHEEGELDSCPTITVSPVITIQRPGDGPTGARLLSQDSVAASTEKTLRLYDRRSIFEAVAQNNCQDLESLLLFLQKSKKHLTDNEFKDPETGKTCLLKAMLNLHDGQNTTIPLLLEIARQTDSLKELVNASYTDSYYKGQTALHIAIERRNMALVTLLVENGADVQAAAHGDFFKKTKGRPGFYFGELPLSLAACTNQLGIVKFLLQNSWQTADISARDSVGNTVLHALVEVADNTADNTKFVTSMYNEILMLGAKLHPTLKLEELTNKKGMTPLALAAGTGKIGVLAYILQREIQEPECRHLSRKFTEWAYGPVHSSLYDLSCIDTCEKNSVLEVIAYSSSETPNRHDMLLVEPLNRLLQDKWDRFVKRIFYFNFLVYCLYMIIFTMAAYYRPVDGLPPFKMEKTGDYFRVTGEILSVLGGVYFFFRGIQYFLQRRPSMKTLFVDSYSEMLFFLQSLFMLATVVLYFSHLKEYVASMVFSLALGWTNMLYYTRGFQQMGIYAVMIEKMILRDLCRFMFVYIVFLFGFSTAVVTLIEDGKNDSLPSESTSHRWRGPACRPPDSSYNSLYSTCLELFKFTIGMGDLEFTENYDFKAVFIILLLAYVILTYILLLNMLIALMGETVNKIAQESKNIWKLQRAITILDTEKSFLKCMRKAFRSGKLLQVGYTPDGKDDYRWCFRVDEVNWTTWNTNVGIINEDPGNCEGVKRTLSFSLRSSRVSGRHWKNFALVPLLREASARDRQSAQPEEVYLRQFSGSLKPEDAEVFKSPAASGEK

inhibition at 10 µM [1]: 12%
melting point: 110.9 to 111.7 °C
Compound: CC(=O)NC(C)C(=O)N1CCN(c2cccc(SC(F)(F)F)c2)CC1 (stereo not drawn) [Compound 30, N-(1-oxo-1-(4-(3-((Trifluoromethyl)thio)phenyl)piperazin-1-yl)propan-2-yl)acetamide]
responders at 100 mg/kg ([2]; four mice, read-out: protection in 6 Hz (32 mA) screening): 100%
responders at 100 mg/kg ([2]; read-out: 6 Hz (32 mA): number of mice protected/number of mice tested (converted)): 100%
ED50 ([2]; mice, pretreatment 0.5 h): 39.1 mg/kg
protection in scPTZ screening [3]: 50%
scPTZ: number of mice protected/number of mice tested ([3]; 0.5 h): 2/4
responders at 100 mg/kg ([4]; 100 mg/kg i.p., 0.5 h, read-out: MES: number of mice protected/number of mice tested (converted)): 100%
ED50 ([4]; mice, pretreatment 0.5 h): 45.3 mg/kg
